Data published in US8877746B2, “Compositions for delivery of insoluble agents” (Cardioklne, Inc, priority 2009, dated 2014).
In brackets after ≈: the same amount, converted by molar mass.

Experiments:
[1] = Solubility of lixivaptan in water; assay type: physicochemical
Procedure: Lixivaptan is very poorly soluble in water (less than 20 ng/mL). Salt formation (a frequently used approach to increase aqueous solubility) was not possible. The bioavailability of lixivaptan can be extremely low in conventional dosage forms (i.e., when blended with excipients and compressed into tablets or filled into capsules).

[2] = Solubility in 1.5% SDS at 25° C.; assay type: physicochemical

Cc1ccc(F)cc1C(=O)Nc1ccc(C(=O)N2Cc3cccn3Cc3ccccc32)c(Cl)c1 [Lixivaptan, 5-fluoro-2-methyl-N-[4-(5H-pyrrolo[2,1-c]-[1,4]-benzodiazepin-10(11H)-ylcarbonyl)-3-chlorophenyl]benzamide]
solubility [1]: < 0.02 µg/mL
Solubility (mg/mL in 1.5% SDS, 25° C.) 1 h ([2]; 1 h): 0.019 mg/mL (≈ 40.1 µM)
solubility at 24 h ([2]; aqueous with cosolvent or surfactant or cyclodextrin, 24 h, read-out: Solubility (mg/mL in 1.5% SDS, 25° C.) 24 h): 0.024 mg/mL (≈ 50.6 µM)
